# Values quoted from earlier work as cited in patent publication US20260285919A1, “RECOMBINANT PEPTIDES AND COMPOSITIONS THEREOF FOR PAIN MANAGEMENT” (UNIVERSITY OF ROCHESTER, priority 2023, published 2026).
# Legend:
# [1] = test system: mice; conditions: for pain responses in injected paws: injected into the paws of mice
# [2] = test system: human ASIC1b; conditions: human ASIC1b protein, as opposed to rodent ASIC1b
Substance,pain responses in injected paws [1],"analgesic effect in mice where ASIC1a is genetically deleted ([1]; ASIC1a genetically deleted mice, ASIC1b present)",effect on the activity of human ASIC1b [2]
"PcTx1 (EDCIPKWKGCVNRHGDCCEGLECWKRRRSFEVCVPKTPKT; UniProt P60514 1-40, looked up)",this effect is not seen,–,–
mambalgin,much less sensitive,still works,increases the activity of human ASIC1b
